Experimental data as given in PubChem BioAssay (NCI).
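A five-concentration, 48-hour dose response in 96-well plates underlies each endpoint, interpolated linearly between surrounding concentrations. Abbreviation: GI50, concentration required for 50% inhibition of growth. TGI: concentration producing complete growth inhibition.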

Tests used:
Assay in all cases: NCI-60 cell line screen, 48 h
786-0 renal = test system: 786-0 renal
A498 renal = test system: A498 renal
A549 NSCLC = test system: A549 NSCLC
ACHN renal = test system: ACHN renal
BT-549 breast = test system: BT-549 breast
CAKI-1 renal = test system: CAKI-1 renal
CCRF-CEM leukemia = test system: CCRF-CEM leukemia
COLO 205 colon = test system: COLO 205 colon
DU-145 prostate = test system: DU-145 prostate
EKVX NSCLC = test system: EKVX NSCLC
HCC-2998 colon = test system: HCC-2998 colon
HCT-116 colon = test system: HCT-116 colon
HCT-15 colon = test system: HCT-15 colon
HL-60(TB) leukemia = test system: HL-60(TB) leukemia
HOP-62 NSCLC = test system: HOP-62 NSCLC
HOP-92 NSCLC = test system: HOP-92 NSCLC
HS 578T breast = test system: HS 578T breast
HT29 colon = test system: HT29 colon
IGROV1 ovarian = test system: IGROV1 ovarian
K-562 leukemia = test system: K-562 leukemia
KM12 colon = test system: KM12 colon
LOX IMVI melanoma = test system: LOX IMVI melanoma
M14 melanoma = test system: M14 melanoma
MALME-3M melanoma = test system: MALME-3M melanoma
MCF7 breast = test system: MCF7 breast
MDA-MB-435 = test system: MDA-MB-435
MOLT-4 leukemia = test system: MOLT-4 leukemia
NCI-H226 lung = test system: NCI-H226 lung
NCI-H460 lung = test system: NCI-H460 lung
NCI-H522 lung = test system: NCI-H522 lung
NCI/ADR-RES ovarian = test system: NCI/ADR-RES ovarian
OVCAR-4 ovarian = test system: OVCAR-4 ovarian
OVCAR-5 ovarian = test system: OVCAR-5 ovarian
OVCAR-8 ovarian = test system: OVCAR-8 ovarian
PC-3 prostate = test system: PC-3 prostate
RPMI-8226 leukemia = test system: RPMI-8226 leukemia
RXF 393 renal = test system: RXF 393 renal
SF-268 CNS = test system: SF-268 CNS
SF-295 CNS = test system: SF-295 CNS
SF-539 CNS = test system: SF-539 CNS
SK-MEL-2 melanoma = test system: SK-MEL-2 melanoma
SK-MEL-28 melanoma = test system: SK-MEL-28 melanoma
SK-MEL-5 melanoma = test system: SK-MEL-5 melanoma
SK-OV-3 ovarian = test system: SK-OV-3 ovarian
SN12C renal = test system: SN12C renal
SNB-19 CNS = test system: SNB-19 CNS
SNB-75 CNS = test system: SNB-75 CNS
SW-620 colon = test system: SW-620 colon
TK-10 renal = test system: TK-10 renal
U251 CNS = test system: U251 CNS
UACC-257 melanoma = test system: UACC-257 melanoma
UACC-62 melanoma = test system: UACC-62 melanoma
UO-31 renal = test system: UO-31 renal
OVCAR-3 ovarian = test system: OVCAR-3 ovarian
SR leukemia = test system: SR leukemia

Cc1cccc(N2CCN(C3=C(Cl)C(=O)c4ncccc4C3=O)CC2)c1
GI50 (786-0 renal): 2330 nM
TGI (786-0 renal): 5.36 µM
GI50 (A498 renal): 13.1 µM
TGI (A498 renal): 26.5 µM
GI50 (A549 NSCLC): 15.7 µM
TGI (A549 NSCLC): 36 µM
GI50 (ACHN renal): 1720 nM
TGI (ACHN renal): 3.51 µM
GI50 (BT-549 breast): 3.61 µM
TGI (BT-549 breast): 9.58 µM
GI50 (CAKI-1 renal): 2860 nM
TGI (CAKI-1 renal): 11.6 µM
GI50 (CCRF-CEM leukemia): 2030 nM
TGI (CCRF-CEM leukemia): 5.79 µM
GI50 (COLO 205 colon): 1940 nM
TGI (COLO 205 colon): 3.79 µM
GI50 (DU-145 prostate): 6.86 µM
TGI (DU-145 prostate): 26.3 µM
GI50 (EKVX NSCLC): 1780 nM
TGI (EKVX NSCLC): 3.34 µM
GI50 (HCC-2998 colon): 8.53 µM
TGI (HCC-2998 colon): 22.1 µM
GI50 (HCT-116 colon): 1670 nM
TGI (HCT-116 colon): 3.07 µM
GI50 (HCT-15 colon): 1710 nM
TGI (HCT-15 colon): 4.05 µM
GI50 (HL-60(TB) leukemia): 1270 nM
TGI (HL-60(TB) leukemia): 3.82 µM
GI50 (HOP-62 NSCLC): 17 µM
TGI (HOP-62 NSCLC): 31 µM
GI50 (HOP-92 NSCLC): 1480 nM
TGI (HOP-92 NSCLC): 2.86 µM
GI50 (HS 578T breast): 5.74 µM
TGI (HS 578T breast): 38.5 µM
GI50 (HT29 colon): 6.09 µM
TGI (HT29 colon): 21 µM
GI50 (IGROV1 ovarian): 2530 nM
TGI (IGROV1 ovarian): 6.58 µM
GI50 (K-562 leukemia): 1800 nM
TGI (K-562 leukemia): 5.31 µM
GI50 (KM12 colon): 19 µM
TGI (KM12 colon): 36.4 µM
GI50 (LOX IMVI melanoma): 1570 nM
TGI (LOX IMVI melanoma): 3.02 µM
GI50 (M14 melanoma): 2690 nM
TGI (M14 melanoma): 9.36 µM
GI50 (MALME-3M melanoma): 1830 nM
TGI (MALME-3M melanoma): 3.77 µM
GI50 (MCF7 breast): 1630 nM
TGI (MCF7 breast): 3.75 µM
GI50 (MDA-MB-435): 1810 nM
TGI (MDA-MB-435): 3.35 µM
GI50 (MOLT-4 leukemia): 2010 nM
TGI (MOLT-4 leukemia): 5.45 µM
GI50 (NCI-H226 lung): 12.9 µM
TGI (NCI-H226 lung): 33.3 µM
GI50 (NCI-H460 lung): 5.49 µM
TGI (NCI-H460 lung): 21.3 µM
GI50 (NCI-H522 lung): 1740 nM
TGI (NCI-H522 lung): 3.42 µM
GI50 (NCI/ADR-RES ovarian): 2440 nM
TGI (NCI/ADR-RES ovarian): 7.45 µM
GI50 (OVCAR-4 ovarian): 1740 nM
TGI (OVCAR-4 ovarian): 3.26 µM
GI50 (OVCAR-5 ovarian): 15 µM
TGI (OVCAR-5 ovarian): 31.5 µM
GI50 (OVCAR-8 ovarian): 2660 nM
TGI (OVCAR-8 ovarian): 9.3 µM
GI50 (PC-3 prostate): 4.48 µM
TGI (PC-3 prostate): 17.5 µM
GI50 (RPMI-8226 leukemia): 2080 nM
TGI (RPMI-8226 leukemia): 5.47 µM
GI50 (RXF 393 renal): 1720 nM
TGI (RXF 393 renal): 3150 nM
GI50 (SF-268 CNS): 14.4 µM
TGI (SF-268 CNS): 32.2 µM
GI50 (SF-295 CNS): 12.1 µM
TGI (SF-295 CNS): 25.5 µM
GI50 (SF-539 CNS): 3.91 µM
TGI (SF-539 CNS): 15.6 µM
GI50 (SK-MEL-2 melanoma): 6.33 µM
TGI (SK-MEL-2 melanoma): 19.2 µM
GI50 (SK-MEL-28 melanoma): 2600 nM
TGI (SK-MEL-28 melanoma): 6.61 µM
GI50 (SK-MEL-5 melanoma): 9.63 µM
TGI (SK-MEL-5 melanoma): 21.5 µM
GI50 (SK-OV-3 ovarian): 12.8 µM
TGI (SK-OV-3 ovarian): 42.9 µM
GI50 (SN12C renal): 4.28 µM
TGI (SN12C renal): 21.9 µM
GI50 (SNB-19 CNS): 14.4 µM
TGI (SNB-19 CNS): 29.5 µM
GI50 (SNB-75 CNS): 10.9 µM
TGI (SNB-75 CNS): 27.9 µM
GI50 (SW-620 colon): 1420 nM
TGI (SW-620 colon): 3000 nM
GI50 (TK-10 renal): 3.96 µM
TGI (TK-10 renal): 8.89 µM
GI50 (U251 CNS): 6.96 µM
TGI (U251 CNS): 21.1 µM
GI50 (UACC-257 melanoma): 2050 nM
TGI (UACC-257 melanoma): 4.97 µM
GI50 (UACC-62 melanoma): 3490 nM
TGI (UACC-62 melanoma): 13 µM
GI50 (UO-31 renal): 1480 nM
TGI (UO-31 renal): 2810 nM

CC(C)=CCC[C@](C)(O)[C@H]1CC[C@]2(C)[C@@H]1CC[C@@H]1[C@@]3(C)CC[C@H](N)C(C)(C)[C@@H]3CC[C@]12C
GI50 (A498 renal): 1.88 µM
TGI (A498 renal): 3.55 µM
GI50 (A549 NSCLC): 1.87 µM
TGI (A549 NSCLC): 3.77 µM
GI50 (ACHN renal): 1780 nM
TGI (ACHN renal): 3.16 µM
GI50 (BT-549 breast): 14.3 µM
TGI (BT-549 breast): 55.8 µM
GI50 (CAKI-1 renal): 1850 nM
TGI (CAKI-1 renal): 3.38 µM
GI50 (CCRF-CEM leukemia): 3020 nM
TGI (CCRF-CEM leukemia): > 100 µM
GI50 (COLO 205 colon): 1900 nM
TGI (COLO 205 colon): 3.68 µM
GI50 (DU-145 prostate): 1.92 µM
TGI (DU-145 prostate): 3.63 µM
GI50 (HL-60(TB) leukemia): 1870 nM
TGI (HL-60(TB) leukemia): 3.9 µM
GI50 (HOP-92 NSCLC): 1760 nM
TGI (HOP-92 NSCLC): 5.46 µM
GI50 (HS 578T breast): 2.21 µM
TGI (HS 578T breast): 5.01 µM
GI50 (K-562 leukemia): 1970 nM
TGI (K-562 leukemia): 5.71 µM
GI50 (MDA-MB-435): 1870 nM
TGI (MDA-MB-435): 3.52 µM
GI50 (MOLT-4 leukemia): 2100 nM
TGI (MOLT-4 leukemia): 4.98 µM
GI50 (NCI-H522 lung): 1970 nM
TGI (NCI-H522 lung): 4.28 µM
GI50 (OVCAR-3 ovarian): 1770 nM
TGI (OVCAR-3 ovarian): 3.27 µM
GI50 (OVCAR-4 ovarian): 2190 nM
TGI (OVCAR-4 ovarian): 5.74 µM
GI50 (OVCAR-5 ovarian): 1.64 µM
TGI (OVCAR-5 ovarian): 3.09 µM
GI50 (OVCAR-8 ovarian): 2180 nM
TGI (OVCAR-8 ovarian): 4.96 µM
GI50 (PC-3 prostate): 1.98 µM
TGI (PC-3 prostate): 4.23 µM
GI50 (RXF 393 renal): 1490 nM
TGI (RXF 393 renal): 2850 nM
GI50 (SF-268 CNS): 4.19 µM
TGI (SF-268 CNS): 21.8 µM
GI50 (SF-295 CNS): 1.81 µM
TGI (SF-295 CNS): 3.39 µM
GI50 (SK-MEL-2 melanoma): 2.02 µM
TGI (SK-MEL-2 melanoma): 4.05 µM
GI50 (SK-MEL-28 melanoma): 1800 nM
TGI (SK-MEL-28 melanoma): 3.35 µM
GI50 (SK-OV-3 ovarian): 3.23 µM
TGI (SK-OV-3 ovarian): 10.9 µM
GI50 (SNB-75 CNS): 10.5 µM
TGI (SNB-75 CNS): 26.4 µM
GI50 (SR leukemia): 1170 nM
TGI (SR leukemia): 3.58 µM
GI50 (TK-10 renal): 6.01 µM
TGI (TK-10 renal): 21.1 µM
GI50 (UACC-257 melanoma): 2060 nM
TGI (UACC-257 melanoma): 4.47 µM
GI50 (UACC-62 melanoma): 1660 nM
TGI (UACC-62 melanoma): 3.21 µM
GI50 (UO-31 renal): 1540 nM
TGI (UO-31 renal): 2900 nM
